Assays:
Experiment in all cases: DiscoverX scanMAX binding assay
PKNB(M.tuberculosis) = biological target: T1, PKNB(M.tuberculosis) (Mycobacterium tuberculosis, UniProt P9WI81); settings: for PKNB(M.tuberculosis) % control at 1000nM: 1 μM
T1 construct: purchased Eurofins (radiometric) / Eurofins DiscoverX scanMAX / Reaction Biology / SignalChem
Source text: (§1) This panel includes 403 wild-type (WT) human kinases but not TTBK1/2. […] Substantial overlap between the MRC and DiscoverX scanMAX kinase panels allows the comparison of results for the same kinases in two different assay formats (enzymatic versus binding, respectively) at the same concentration. Selectivity results are included in two columns within Table 1. […] The rightmost column converts this selectivity score into the number of kinases with a PoC < 10 in the scanMAX panel.
(§2) The Eurofins DiscoverX Corporation scanMAX assay platform was employed to assess the selectivity of specific analogs at a single concentration (1 µM). As described previously, this assay platform profiles a compound against 403 wild-type human kinases and delivers percent of control (PoC) values. These percent of control values are included in Table 1 and corresponding kinome tree diagrams as well as tables for each analog included in Fig. S1.

MAP4K2 = biological target: T2, MAP4K2 (Homo sapiens, UniProt Q12851); settings: for MAP4K2 % control at 1000nM: 1 μM
T2 construct: purchased Eurofins (radiometric) / Eurofins DiscoverX scanMAX / Reaction Biology / SignalChem
T2 sequence (Q12851 1-820): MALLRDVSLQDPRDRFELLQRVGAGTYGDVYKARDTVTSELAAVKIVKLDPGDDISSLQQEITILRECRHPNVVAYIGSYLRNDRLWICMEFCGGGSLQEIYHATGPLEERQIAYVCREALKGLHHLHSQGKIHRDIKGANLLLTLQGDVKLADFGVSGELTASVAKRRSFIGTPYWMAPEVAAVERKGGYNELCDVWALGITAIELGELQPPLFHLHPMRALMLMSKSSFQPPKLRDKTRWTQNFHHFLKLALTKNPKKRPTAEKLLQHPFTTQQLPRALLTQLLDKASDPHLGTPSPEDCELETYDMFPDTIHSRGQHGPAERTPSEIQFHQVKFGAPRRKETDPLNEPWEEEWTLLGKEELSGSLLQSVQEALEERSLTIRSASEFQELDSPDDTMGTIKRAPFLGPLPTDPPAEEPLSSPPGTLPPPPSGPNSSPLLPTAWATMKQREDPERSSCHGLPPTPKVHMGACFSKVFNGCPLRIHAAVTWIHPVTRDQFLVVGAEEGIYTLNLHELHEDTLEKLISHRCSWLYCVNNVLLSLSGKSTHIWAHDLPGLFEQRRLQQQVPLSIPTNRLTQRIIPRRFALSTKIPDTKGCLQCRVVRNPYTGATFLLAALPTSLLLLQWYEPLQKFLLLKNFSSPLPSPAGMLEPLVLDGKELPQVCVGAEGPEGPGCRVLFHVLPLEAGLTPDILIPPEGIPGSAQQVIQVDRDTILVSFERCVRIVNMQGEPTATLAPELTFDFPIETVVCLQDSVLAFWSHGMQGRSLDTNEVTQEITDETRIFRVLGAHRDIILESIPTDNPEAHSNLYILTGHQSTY
Source text: as §1, §2

TAOK3 = biological target: T3, TAOK3 (Homo sapiens, UniProt Q9H2K8); settings: for TAOK3 % control at 1000nM: 1 μM
T3 construct: purchased Eurofins (radiometric) / Eurofins DiscoverX scanMAX / Reaction Biology / SignalChem
T3 sequence (Q9H2K8 1-898): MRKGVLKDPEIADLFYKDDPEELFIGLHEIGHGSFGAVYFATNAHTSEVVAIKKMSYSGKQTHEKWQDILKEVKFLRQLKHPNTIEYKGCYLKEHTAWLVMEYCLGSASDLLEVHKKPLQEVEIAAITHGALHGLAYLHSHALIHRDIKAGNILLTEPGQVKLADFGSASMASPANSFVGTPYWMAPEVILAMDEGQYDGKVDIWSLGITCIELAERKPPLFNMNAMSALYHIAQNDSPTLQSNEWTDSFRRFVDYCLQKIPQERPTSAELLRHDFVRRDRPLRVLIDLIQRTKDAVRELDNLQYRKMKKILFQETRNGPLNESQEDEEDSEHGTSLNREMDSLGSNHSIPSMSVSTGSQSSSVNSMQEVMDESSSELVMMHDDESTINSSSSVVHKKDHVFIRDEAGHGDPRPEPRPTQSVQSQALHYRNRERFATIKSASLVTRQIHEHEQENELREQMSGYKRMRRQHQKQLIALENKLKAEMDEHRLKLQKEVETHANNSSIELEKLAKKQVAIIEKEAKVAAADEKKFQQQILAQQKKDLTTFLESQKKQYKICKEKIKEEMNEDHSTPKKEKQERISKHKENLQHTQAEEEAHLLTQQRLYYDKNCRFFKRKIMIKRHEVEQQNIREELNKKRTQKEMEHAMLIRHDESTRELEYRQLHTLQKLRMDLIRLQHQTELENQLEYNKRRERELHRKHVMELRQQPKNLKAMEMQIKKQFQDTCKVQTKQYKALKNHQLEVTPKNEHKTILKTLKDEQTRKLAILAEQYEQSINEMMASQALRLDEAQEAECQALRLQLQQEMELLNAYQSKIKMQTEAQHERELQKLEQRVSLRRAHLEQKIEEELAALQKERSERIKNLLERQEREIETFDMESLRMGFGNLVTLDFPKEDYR
Source text: as §1, §2

T1 sequence (P9WI81 whole entry): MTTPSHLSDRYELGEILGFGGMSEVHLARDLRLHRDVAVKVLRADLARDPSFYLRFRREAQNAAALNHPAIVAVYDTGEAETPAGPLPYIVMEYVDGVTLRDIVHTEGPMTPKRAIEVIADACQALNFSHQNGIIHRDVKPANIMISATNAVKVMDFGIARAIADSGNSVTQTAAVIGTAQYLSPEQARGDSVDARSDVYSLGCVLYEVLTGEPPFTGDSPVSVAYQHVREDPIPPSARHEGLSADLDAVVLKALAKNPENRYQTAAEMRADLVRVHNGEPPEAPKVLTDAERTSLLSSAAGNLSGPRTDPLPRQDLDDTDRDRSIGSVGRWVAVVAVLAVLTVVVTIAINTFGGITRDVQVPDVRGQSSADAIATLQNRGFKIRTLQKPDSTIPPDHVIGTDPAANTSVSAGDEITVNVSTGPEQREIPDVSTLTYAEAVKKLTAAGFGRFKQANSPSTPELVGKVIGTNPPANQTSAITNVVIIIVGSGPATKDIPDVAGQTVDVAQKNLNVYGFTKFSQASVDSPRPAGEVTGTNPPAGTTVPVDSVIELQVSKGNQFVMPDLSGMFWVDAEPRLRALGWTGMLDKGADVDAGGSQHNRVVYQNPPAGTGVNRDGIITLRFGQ

Row | SMILES | kinase binding, % of control at 1 µM (PKNB(M.tuberculosis); read-out: PKNB(M.tuberculosis) % control at 1000nM) | percent of control (binding) at 1 µM (MAP4K2; read-out: MAP4K2 % control at 1000nM) | kinase binding, percent of control at 1 µM (TAOK3; read-out: TAOK3 % control at 1000nM) | PKNB(M.tuberculosis) % control at 1000nM (PKNB(M.tuberculosis)) | MAP4K2 % control at 1000nM (MAP4K2) | TAOK3 % control at 1000nM (TAOK3)
1 | CC(C)(O)C#Cc1ccc2[nH]c3c(c2c1)-c1nc(N)ncc1CCC3 [AMG28, reference compound] | 0.1% | 1.3% | 1.8% | – | – | –
2 | CC(C)(O)C#Cc1ccc2[nH]c3c(c2c1)-c1nc(N)ncc1CC3 [Compound 1] | – | – | – | 1.7 % control | 2 % control | 1.5 % control
3 | CC(C)(O)C#Cc1ccc2[nH]cc(-c3ccnc(N)n3)c2c1 [Compound 3] | – | – | – | 0.9 % control | 1.6 % control | 0.4 % control
